Measurements published in ChEMBL document CHEMBL1201862, “PubChem BioAssay data set” (2004).
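Protocol summary: plate cells (96-well), add compound at 5 concentrations, incubate 48 h, interpolate endpoints linearly. GI50 = concentration required for 50% inhibition of growth.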 Calls of active or inactive are those of the source. Cut-off read from the data, not from the text of the source: active = GI50 up to about 1.1 µM and inactive = higher.

Columns and labels:
Assay in all cases: growth of human tumour cells (NCI), 48 h
ACHN = tested on: ACHN
HCT-15 = tested on: HCT-15
K562 = tested on: K562
M14 = tested on: M14
MDA-N = tested on: MDA-N
MOLT-4 = tested on: MOLT-4
NCI-H23 = tested on: NCI-H23
PC-3 = tested on: PC-3
SF-268 = tested on: SF-268
SF-295 = tested on: SF-295
SN12C = tested on: SN12C
SW-620 = tested on: SW-620
TK-10 = tested on: TK-10
UO-31 = tested on: UO-31
CAKI-1 = tested on: CAKI-1
OVCAR-4 = tested on: OVCAR-4
SK-MEL-2 = tested on: SK-MEL-2
SNB-75 = tested on: SNB-75
LOX IMVI = tested on: LOX IMVI

Cc1cc(C)c(N[S+]([O-])c2ccc(Cl)cc2)c(C)c1 (stereo unspecified)
GI50 (ACHN): > 100 µM (inactive) | GI50 (HCT-15): > 100 µM | GI50 (K562): > 100 µM (inactive) | GI50 (M14): > 100 µM (inactive) | GI50 (MDA-N): 71.1 µM (inactive) | GI50 (MOLT-4): > 100 µM (inactive) | GI50 (NCI-H23): > 100 µM (inactive) | GI50 (PC-3): > 100 µM (inactive) | GI50 (SF-268): > 100 µM (inactive) | GI50 (SF-295): > 100 µM (inactive) | GI50 (SN12C): > 100 µM (inactive) | GI50 (SW-620): > 100 µM (inactive) | GI50 (TK-10): > 100 µM (inactive) | GI50 (UO-31): > 100 µM (inactive)

O=C(COc1ccc(Cl)c(Cl)c1)Nc1ccc[n+](Cc2ccc(S(=O)(=O)F)c(Cl)c2)c1
GI50 (ACHN): > 100 µM (inactive) | GI50 (CAKI-1): > 100 µM (inactive) | GI50 (HCT-15): > 100 µM | GI50 (K562): > 100 µM (inactive) | GI50 (M14): > 100 µM (inactive) | GI50 (MOLT-4): 25.4 µM (inactive) | GI50 (NCI-H23): > 100 µM (inactive) | GI50 (OVCAR-4): > 100 µM (inactive) | GI50 (PC-3): > 100 µM (inactive) | GI50 (SF-268): > 100 µM (inactive) | GI50 (SF-295): > 100 µM (inactive) | GI50 (SK-MEL-2): > 100 µM (inactive) | GI50 (SN12C): 98.4 µM (inactive) | GI50 (SNB-75): > 100 µM (inactive) | GI50 (SW-620): > 100 µM (inactive) | GI50 (TK-10): > 100 µM (inactive) | GI50 (UO-31): > 100 µM (inactive)

O=C1C(=C(C(=O)c2ccccc2)C(=O)c2ccccc2)OC(c2ccccc2)=C1C(=O)c1ccccc1
GI50 (ACHN): 4.88 µM (inactive) | GI50 (CAKI-1): 0.597 µM (active) | GI50 (HCT-15): 3.36 µM | GI50 (K562): 6.03 µM (inactive) | GI50 (LOX IMVI): 1.77 µM (inactive) | GI50 (M14): 7.41 µM (inactive) | GI50 (MDA-N): 6.47 µM (inactive) | GI50 (MOLT-4): 1.98 µM (inactive) | GI50 (NCI-H23): 6.1 µM (inactive) | GI50 (OVCAR-4): 2.79 µM (inactive) | GI50 (PC-3): 13.2 µM (inactive) | GI50 (SF-268): 3.8 µM (inactive) | GI50 (SF-295): 4.79 µM (inactive) | GI50 (SK-MEL-2): 10.8 µM (inactive) | GI50 (SN12C): 3.29 µM (inactive) | GI50 (TK-10): 9.35 µM (inactive) | GI50 (UO-31): 6.79 µM (inactive)

CCCC(CC)c1c(O)c(O)c(C(CC)CCC)c(C(CC)CCC)c1C(CC)CCC (stereo unspecified)
GI50 (ACHN): > 10 µM (inactive) | GI50 (CAKI-1): > 10 µM (inactive) | GI50 (HCT-15): > 10 µM | GI50 (K562): > 10 µM (inactive) | GI50 (LOX IMVI): > 10 µM (inactive) | GI50 (M14): > 10 µM (inactive) | GI50 (MDA-N): > 10 µM (inactive) | GI50 (NCI-H23): > 10 µM (inactive) | GI50 (OVCAR-4): > 10 µM (inactive) | GI50 (PC-3): > 10 µM (inactive) | GI50 (SF-268): > 10 µM (inactive) | GI50 (SF-295): > 10 µM (inactive) | GI50 (SK-MEL-2): > 10 µM (inactive) | GI50 (SN12C): > 10 µM (inactive) | GI50 (SW-620): > 10 µM (inactive) | GI50 (TK-10): > 10 µM (inactive) | GI50 (UO-31): > 10 µM (inactive)

Cc1cc2c(c(C(N)=O)c1C)-c1cccc(Cl)c1C2=O
GI50 (ACHN): > 100 µM (inactive) | GI50 (HCT-15): > 100 µM | GI50 (K562): > 100 µM (inactive) | GI50 (LOX IMVI): > 100 µM (inactive) | GI50 (M14): > 100 µM (inactive) | GI50 (MOLT-4): 57.9 µM (inactive) | GI50 (NCI-H23): > 100 µM (inactive) | GI50 (OVCAR-4): > 100 µM (inactive) | GI50 (SF-268): > 100 µM (inactive) | GI50 (SF-295): > 100 µM (inactive) | GI50 (SK-MEL-2): > 100 µM (inactive) | GI50 (SN12C): > 100 µM (inactive) | GI50 (SNB-75): 6.7 µM (inactive) | GI50 (SW-620): > 100 µM (inactive) | GI50 (TK-10): > 100 µM (inactive) | GI50 (UO-31): 41.6 µM (inactive)

CCc1c2c(cc3c1CC1(C3)Cc3cc4c(c(C(=O)OC)c3C1)CCCC4)CCCC2 (stereo unspecified)
GI50 (ACHN): > 100 µM (inactive) | GI50 (HCT-15): > 100 µM | GI50 (K562): > 100 µM (inactive) | GI50 (LOX IMVI): > 100 µM (inactive) | GI50 (M14): > 100 µM (inactive) | GI50 (MDA-N): > 100 µM (inactive) | GI50 (MOLT-4): 34.5 µM (inactive) | GI50 (NCI-H23): > 100 µM (inactive) | GI50 (OVCAR-4): > 100 µM (inactive) | GI50 (PC-3): > 100 µM (inactive) | GI50 (SF-295): > 100 µM (inactive) | GI50 (SK-MEL-2): > 100 µM (inactive) | GI50 (SN12C): > 100 µM (inactive) | GI50 (TK-10): > 100 µM (inactive) | GI50 (UO-31): > 100 µM (inactive)
